Here are results for four molecules from patent publication US8227453B2, “Pharmaceutical formulations and uses thereof in the treatment of female sexual dysfunction” (Emotional Brain B.V., priority 2004, dated 2012).

For data set [1] the following is noted: typical value; cited from earlier work.
In data set [2] the test system is women suffering from Female Sexual Dysfunction. Briefly: Sexual desire, genital sensations and subjective sexual arousal in women with FSD. The class given is in vivo, human. The source says:
Attentional engagement is an important function for normal human sexuality.

Data set [3] relates to women suffering from FSD. Briefly: Vaginal Pulse Amplitude (VPA) response to erotic film in women with FSD, placebo controlled cross-over. The data set is classed as in vivo, human. Particulars: for Vaginal Pulse Amplitude during exposure to erotic stimuli (vaginal arousability) compared with placebo: testosterone 0.5 mg sublingual, Vardenafil 10 mg, four hours after medication; for increase in VPA between neutral and erotic films, before medication (trial 1) versus after medication (trial 4): within drug condition. The text has this: Fourteen women with a heterosexual orientation (mean age: 40.6 years; sd: 10.4; premenopausal n=8, postmenopausal n=6) who have been experiencing FSD (i.e., low sexual desire, low sexual arousal or decreased orgasm potency) for at least six months prior to study entry, participated in this study. Subjects in fertile age used contraceptives (IUDs, sterilization, oral contraceptives except contraceptives containing anti-androgens). A pregnancy test was part of the procedure. Subjects were interviewed and examined by a gynecologist to exclude pregnancy or breast feeding, vaginal infections, major operations to the vagina and/or vulva or unexplained gynecological complaints. […] Cardiovascular condition was tested and ECG was checked for significant abnormalities. Standard blood chemistry and hematology tests were performed. […] Subjects could not make appointments during their period of menstruation.
Each subject underwent the four different drug treatments (i.e., PDE5 inhibitor, testosterone, PDE5 inhibitor+testosterone and placebo) at four separate experimental days. The four experimental days were separated by at least a three-day period.
During each day of drug manipulation, subjects underwent the following measurements: • −1:00 hours: Emotional Stroop Task • −0:15 hours: Trial 1 • 0:00 hours: Intake drugs • 0:05 hours: Trial 2 • 2:45 hours: Trial 3 • 4:15 hours: Trial 4
Each day started with a physical examination (measurements of vital signs, blood pressure, heart rate, temperature and respiration rate). Blood samples (8 ml) were taken for hormone analyses. Subjects then were seated in the sound attenuated, dimly lit experimental room. In order to make this room less “sterile,” geographic posters were hung on the walls and an air perfumer was placed behind the subjects. The subjects then executed the emotional Stroop task (15 minutes). The experimenter brought the vaginal probe and the subject was left alone in the room to insert the probe. The subject was instructed to sit as quietly as possible while viewing the film fragments. A ten-minute neutral fragment was followed by a five-minute erotic film fragment. After these baseline measurements, the subjects took medication: testosterone (0.5 mg or placebo) sublingually, with cyclodextrins as carrier and Vardenafil (10 mg or placebo) hidden in a capsule. The medication was followed by another set of neutral (five minutes) and erotic (five minutes) film fragments. The subjects removed the vaginal probe and were taken to a waiting room for a pause of two hours. During this pause, they could consume their lunch. Unlimited coffee and tea were available. This pause was followed by a third set of neutral (five minutes) and erotic (five minutes) film fragments.
Again subjects had to wait for two hours so that the last VPA measurement was taken four hours after medication. This last film-trial (neutral, erotic film fragments) was followed by a second presentation of the emotional Stroop. The experimental day ended with a short physical examination including drawing of a blood sample (8 ml for hormone analyses) and collection of AE and SAE.
During the testosterone condition, one subject became nauseated watching the erotic film and decided not to participate further that day. For the psychophysiological evaluation, the VPA (Vaginal Pulse Amplitude) is used. The VPA reflects phasic changes in the blood volume corresponding with each heartbeat; higher levels indicate higher levels of blood flow. The dependent variable used is the amplitude of the pulse wave. Before the mean VPA was calculated, the raw signal (sample rate was 20 Hz) was digitally bandpass filtered with a Butterworth filter (−3 dB cutoff frequency range 0.7-1.5 Hz; 40 dB down/octave). Movement artifacts were detected by visual inspection of the signal and removed manually. Hereafter, the amplitude was measured as the distance between the top and bottom of a pulse wave. […]

The test system of data set [4] is sexually functional women. To be noted: cited from earlier work.
The subject of data set [5] is hypogonadotropic hypogonadal females. Kind of data set: Vaginal responsiveness during oral testosterone substitution. The data set is classed as in vivo, human. To be noted: dosed each morning. As for the experimental part: An important aspect of sexual motivation is physiological sexual responding. […] In both studies, subjects received testosterone each morning, but patients in the first experiment were tested in the afternoon and patients in the second experiment in the morning. The different outcomes on physiological responding between these experiments may be caused by a time-dependent effect of testosterone on vaginal arousal.

Data set [6] has as its system women suffering from FSD.
Source text: An unmasked and a masked version of the Emotional Stroop Task comparing color-naming latencies on neutral and erotic words were used. In both the unmasked and the masked condition, eight erotic and neutral words are presented in different colors (i.e., red, green, blue and yellow). An extra set of stimuli consisting of letter strings was used for practice trials. Subjects were instructed to ignore the content of the words and to name the color of the words as quickly as possible (in the masked condition, the color of the mask has to be named). Each trial consisted of a fixation point which is shown for 750 ms, followed by the target stimulus (the colored neutral or erotic word). In the masked condition, the word picture is presented for about 24 ms and then masked by randomly cut, reassembled letters in the same color. A microphone connected to a voice-level detector was placed in front of the subject. Initiation of vocal response was registered by the computer's clock and terminated the target presentation (with a no-response maximum of 3000 ms). Thirty-two neutral words and thirty-two erotic words were presented blocked. The same words were used for each test, however, the sequence of words and colors differed all eight times this task was used.
To test for associations with changes in attentional processes, we used the StroopRT as the measurement point. StroopRT is the difference in mean reaction times on color naming of the neutral and the sexual words.
For data set [7], the system named is healthy sexually functional women. Particulars: 0.5 mg sublingual.
Procedure: In a recently conducted experiment (not published) in healthy sexually functional women, we used a delayed measurement design in which subjects ingested one dosage of testosterone (0.5 mg sublingual) or placebo and after four hours, underwent fMRI while watching neutral and erotic videos. Hereafter, subjects were conducted to a laboratory where their VPA in response to neutral and erotic videos was measured.
Data set [8] can be described thus: Plasma level of testosterone after sublingual administration. Particulars: single sublingual dose; of short duration.
For data set [9], the system named is sexually functional women. Kind of data set: Vaginal responsiveness to erotic films after a single sublingual dose in sexually functional women.
In data set [10] the test system is healthy sexually functional women. More on the design: species or system human. To be noted: in vivo.
Procedure: In a recently conducted experiment (not published) in healthy sexually functional women, we used a delayed measurement design in which subjects ingested one dosage of testosterone (0.5 mg sublingual) or placebo and after four hours, underwent fMRI while watching neutral and erotic videos. Hereafter, subjects were conducted to a laboratory where their VPA in response to neutral and erotic videos was measured. […] Because of testosterone's delayed effect on enhancing VPA, we expected enhancement of these “erotic” structures in this fMRI study.

Entries after “also recorded” stand apart in the source; their conditions may differ.

On to `CCCc1nc(C)c2c(=O)nc(-c3cc(S(=O)(=O)N4CCN(CC)CC4)ccc3OCC)[nH]n12.Cl` [Vardenafil, piperazine, 1-[[3-(1,4-dihydro-5-methyl-4-oxo-7-propylimidazo[5,1-f][1,2,4]triazin-2-yl)-4-ethoxyphenyl]sulfonyl]-4-ethyl-, monohydrochloride], for which, in data set [1], the “time to peak plasma concentration after administration” value is given as “about one”. Moreover, the “sexual desire, genital sensations / subjective sexual arousal compared with placebo” value in data set [2] is “no effect”. Moreover, the “Vaginal Pulse Amplitude during exposure to erotic stimuli (vaginal arousability) compared with placebo” value in [3] (women with FSD, listed as PDE5 inhibitor, monohydrochloride) was “no effect”; in data set [3] (women with FSD, monohydrochloride), “did not lead to a significant difference”. Besides, in data set [3] (women with FSD), the “increase in VPA between neutral and erotic films, before medication (trial 1) versus after medication (trial 4)” value is reported as “insignificant”.

On to `CCCc1nn(C)c2c(=O)[nH]c(-c3cc(S(=O)(=O)N4CCN(C)CC4)ccc3OCC)nc12.O=C(O)CC(O)(CC(=O)O)C(=O)O` [sildenafil, 1-[[3-(6,7-dihydro-1-methyl-7-oxo-3-propyl-1Hpyrazolo[4,3-d]pyrimidin-5-yl)-4-ethoxyphenyl]sulfonyl]-4-methylpiperazine citrate], for which the sexual performance entry in data set [4] is given as “improves”.

As for `CCCCCCCCCCC(=O)O[C@H]1CC[C@H]2[C@@H]3CCC4=CC(=O)CC[C@]4(C)[C@H]3CC[C@]12C` [testosterone undecanoate], in data set [5] (40 mg orally per day, eight weeks, tested in the afternoon), the “vaginal responsiveness, first group” value is given as “enhanced”. In addition, the “vaginal responsiveness, another group (unpublished data)” value in data set [5] (tested in the morning) was “not found”.

Regarding `C[C@]12CC[C@H]3[C@@H](CCC4=CC(=O)CC[C@@]43C)[C@@H]1CC[C@@H]2O` [testosterone, 17-β-hydroxyandrost-4-en-3-one], the “StroopRT (attention for sexual stimuli), not-abused subjects” value in [6] (masked condition, decrease = attention for sexual stimuli increases) is recorded as “decreases”. Besides, the “StroopRT (attentional bias for sexual stimuli), sexually abused subjects” value in data set [6] (masked condition, increase = bias away from sexual stimuli) was “increases”. The “attentional engagement (or withdrawal) for sexual cues, as compared with placebo and/or a PDE5 inhibitor” value in data set [6] (women with FSD) is on record as “increase”. For the same molecule, the “relative change in VPA as compared with the placebo, after fMRI procedure” value in data set [7] is “smaller”. Also, in data set [8], the “plasma levels of testosterone after intake” value is listed as “sharp increase”. Moreover, the “vaginal responsiveness when exposed to visual sexual stimuli” value in data set [9] (eight sexually functional women, single sublingual dose versus placebo) is recorded as “striking increase”. In addition, the “time lag between plasma testosterone peak and increase in vaginal responsiveness” value in data set [9] (sexually functional women, sublingual) is “three to four and a half”. In data set [10], the “activation of septum and left dorsolateral PFC (fMRI)” value is reported as “very significant increase”. The “sexual desire, genital sensations / subjective sexual arousal compared with placebo” value in data set [2] is given as “no effect”. Also, the “VPA to erotic stimuli over trials, sexually abused subjects” value in data set [3] (women with FSD sexually abused during childhood, with or without testosterone) is “no increase”. In data set [3] (women with FSD, not abused), the “VPA response to the erotic film, not-abused subjects, testosterone versus no-testosterone conditions” value is listed as “increases”. In addition, the “increase in VPA from before to after measurement, drug conditions containing the steroid versus without the steroid” value in data set [3] (women with FSD, interaction F(1.12)=5.75, p<0.04, pooled steroid conditions) was “significantly higher”. In data set [3] (women with FSD), the “Vaginal Pulse Amplitude during exposure to erotic stimuli (vaginal arousability) compared with placebo” value is reported as “no effect; also recorded: insufficient for a significant increase”; the “increase in VPA between neutral and erotic films, before medication (trial 1) versus after medication (trial 4)” value is on record as “insignificant”.
